From ChEMBL document CHEMBL2176932, “De novo cyclic pseudopeptides containing aza-β3-amino acids exhibiting antimicrobial activities” (J Med Chem, 2012)
In brackets after ≈: the same amount, converted by molar mass.

Key:
[1] = system: Listeria monocytogenes; test: Antibacterial activity against Listeria monocytogenes SOR 100 after 48 hrs by microtiter broth dilution method; type: functional; conditions: SOR 100, 48 h
[2] = Half life in bovine serum; type: ADME, cell-free, Bos taurus; conditions: cattle
[3] = Toxicity in sheep RBC assessed as hemolytic activity after 1 hr; type: cell-based, Ovis aries, Erythrocyte; conditions: sheep red blood cells
[4] = system: Pseudomonas aeruginosa; test: Antibacterial activity against Pseudomonas aeruginosa ATCC 27853 after 48 hrs by microtiter broth dilution method; type: functional; conditions: ATCC 27853, 48 h
[5] = system: Streptococcus equinus; test: Antibacterial activity against Streptococcus equinus ATCC 5623 after 48 hrs by microtiter broth dilution method; type: functional; conditions: ATCC 5623, 48 h
[6] = Toxicity in sheep RBC assessed as hemolytic activity at 100 uM after 1 hr; type: cell-based, Ovis aries, Erythrocyte; conditions: sheep red blood cells, read-out: Activity
[7] = system: Klebsiella oxytoca; test: Antibacterial activity against Klebsiella oxytoca CIP 7932 after 48 hrs by microtiter broth dilution method; type: functional; conditions: CIP 7932, 48 h
[8] = system: Escherichia coli; test: Antibacterial activity against Escherichia coli ATCC 25922 after 48 hrs by microtiter broth dilution method; type: functional; conditions: ATCC 25922, 48 h
[9] = system: Klebsiella aerogenes; test: Antibacterial activity against Enterobacter aerogenes ATCC 13048 after 48 hrs by microtiter broth dilution method; type: functional; conditions: ATCC 13048, 48 h
[10] = Selectivity ratio of HC50 for sheep RBC to MIC for Staphylococcus aureus ATCC 25923; type: functional
[11] = system: Enterococcus faecalis; test: Antibacterial activity against Enterococcus faecalis CIP 186 after 48 hrs by microtiter broth dilution method; type: functional; conditions: CIP 186, 48 h
[12] = Selectivity ratio of MHC for sheep RBC to MIC for Staphylococcus aureus ATCC 25923; type: functional
[13] = system: Staphylococcus aureus; test: Antibacterial activity against Staphylococcus aureus ATCC 25923 after 48 hrs by microtiter broth dilution method; type: functional; conditions: ATCC 25923, 48 h
[14] = system: Priestia megaterium; test: Antibacterial activity against Bacillus megaterium ATCC 10778 after 48 hrs by microtiter broth dilution method; type: functional; conditions: ATCC 10778, 48 h
[15] = system: Salmonella enterica; test: Antibacterial activity against Salmonella enterica ATCC 13076 after 48 hrs by microtiter broth dilution method; type: functional; conditions: ATCC 13076, 48 h
[16] = system: Micrococcus luteus; test: Antibacterial activity against Micrococcus luteus ATCC 10240 after 48 hrs by microtiter broth dilution method; type: functional; conditions: ATCC 10240, 48 h
[17] = system: Aeromonas caviae; test: Antibacterial activity against Aeromonas caviae ATCC 15648 after 48 hrs by microtiter broth dilution method; type: functional; conditions: ATCC 15648, 48 h
[18] = system: Lactococcus garvieae; test: Antibacterial activity against Lactococcus garvieae ATCC 43921 after 48 hrs by microtiter broth dilution method; type: functional; conditions: ATCC 43921, 48 h
[19] = Toxicity in sheep RBC assessed as minimal hemolytic concentration after 1 hr; type: cell-based, Ovis aries; conditions: erythrocyte
[20] = Selectivity ratio of MHC for sheep RBC to MIC for Listeria monocytogenes SOR 100; type: functional
[21] = Selectivity ratio of HC50 for sheep RBC to MIC for Escherichia coli ATCC 25922; type: functional
[22] = Selectivity ratio of MHC for sheep RBC to MIC for Escherichia coli ATCC 25922; type: functional

Compound `CCCCCCCCN1CC(=O)N[C@@H](Cc2c[nH]c3ccccc23)C(=O)NN(CCCCCCCC)CC(=O)N[C@@H](CCCCN)C(=O)NN(CCCCN)CC(=O)N[C@@H](Cc2c[nH]c3ccccc23)C(=O)N1` has an MIC [1] of 3.12 µM (≈ 3.16 µg/mL), a half-life [2] greater than 2 h and an HC50 at 1 h [3] of 90 µM. It also gave an MIC [4] of 25 µM (≈ 25.3 µg/mL), an MIC [5] of 6.25 µM (≈ 6.33 µg/mL) and a hemolysis at 1 h, 100 µM [6] of 55%. The MIC [7] was greater than 100 µM, the MIC [8] was greater than 100 µM and the MIC [9] was greater than 100 µM. For the same compound, the Selectivity ratio [10] was 14.4, the MIC [11] was 12.5 µM (≈ 12.7 µg/mL) and the Selectivity ratio [12] was 1. It also gave an MIC [13] of 6.25 µM (≈ 6.33 µg/mL), an MIC [14] of 6.25 µM (≈ 6.33 µg/mL) and an MIC [15] greater than 100 µM. It also gave an MIC [16] of 3.12 µM (≈ 3.16 µg/mL), an MIC [17] greater than 100 µM and an MIC [18] of 6.25 µM (≈ 6.33 µg/mL).

Compound `N=C(N)NCCC[C@@H]1NC(=O)CN(CC2CCCCC2)NC(=O)[C@H](Cc2c[nH]c3ccccc23)NC(=O)CN(Cc2ccc(F)cc2)NC(=O)[C@H](Cc2c[nH]c3ccccc23)NC(=O)CN(CCCCN)NC1=O` has an MIC [1] of 6.25 µM (≈ 6.38 µg/mL), a half-life [2] greater than 2 h and an HC50 at 1 h [3] greater than 100 µM. The MHC [19] was 100 µM, the MIC [4] was 50 µM (≈ 51 µg/mL) and the MIC [5] was 6.25 µM (≈ 6.38 µg/mL). It also gave a hemolysis at 1 h, 100 µM [6] of 2.5%, an MIC [7] of 25 µM (≈ 25.5 µg/mL) and a Selectivity ratio [20] of 16. For the same compound, the MIC [8] was 25 µM (≈ 25.5 µg/mL), the MIC [9] was 12.5 µM (≈ 12.8 µg/mL) and the Selectivity ratio [10] was 4. The MIC [11] was 50 µM (≈ 51 µg/mL), the Selectivity ratio [12] was 4 and the MIC [13] was 25 µM (≈ 25.5 µg/mL). It also gave an MIC [14] of 1.56 µM (≈ 1.59 µg/mL), an MIC [15] of 25 µM (≈ 25.5 µg/mL) and a Selectivity ratio [21] of 4. It also gave an MIC [16] of 3.12 µM (≈ 3.18 µg/mL), an MIC [17] greater than 100 µM and an MIC [18] of 25 µM (≈ 25.5 µg/mL).

With `CCCCCCCCCCCCN1CC(=O)N[C@@H](Cc2c[nH]c3ccccc23)C(=O)NN(Cc2cccc3ccccc23)CC(=O)N[C@@H](CCCCN)C(=O)NN(CCCCN)CC(=O)N[C@@H](CC2CCCCC2)C(=O)N1` the MIC [1] was 12.5 µM (≈ 13.3 µg/mL), the half-life [2] was greater than 2 h and the HC50 at 1 h [3] was 50 µM. The MIC [4] was greater than 100 µM, the MIC [5] was 12.5 µM (≈ 13.3 µg/mL) and the hemolysis at 1 h, 100 µM [6] was 62%. For the same compound, the MIC [7] was greater than 100 µM, the MIC [8] was greater than 100 µM and the MIC [9] was greater than 100 µM. The Selectivity ratio [10] was 2, the MIC [11] was 12.5 µM (≈ 13.3 µg/mL) and the Selectivity ratio [12] was 0.12. The MIC [13] was 25 µM (≈ 26.6 µg/mL), the MIC [14] was 12.5 µM (≈ 13.3 µg/mL) and the MIC [15] was greater than 100 µM. For the same compound, the MIC [16] was 12.5 µM (≈ 13.3 µg/mL), the MIC [17] was greater than 100 µM and the MIC [18] was 50 µM (≈ 53.2 µg/mL).

Compound `N=C(N)NCCC[C@@H]1NC(=O)CN(CCCCN)NC(=O)CN(Cc2ccc3ccccc3c2)NC(=O)[C@H](Cc2ccccc2)NC(=O)CN(Cc2ccc3ccccc3c2)NC1=O` has an MIC [1] of 25 µM (≈ 21.8 µg/mL), an HC50 at 1 h [3] greater than 100 µM and a Selectivity ratio [22] of 1. It also gave an MIC [4] of 50 µM (≈ 43.6 µg/mL), an MIC [5] of 12.5 µM (≈ 10.9 µg/mL) and a hemolysis at 1 h, 100 µM [6] of 1%. The MIC [7] was greater than 100 µM, the MIC [8] was 100 µM (≈ 87.1 µg/mL) and the MIC [9] was 100 µM (≈ 87.1 µg/mL). The Selectivity ratio [10] was 2, the MIC [11] was greater than 100 µM and the Selectivity ratio [12] was 2. The MIC [13] was 50 µM (≈ 43.6 µg/mL), the MIC [14] was 3.12 µM (≈ 2.72 µg/mL) and the MIC [15] was 100 µM (≈ 87.1 µg/mL). It also gave a Selectivity ratio [21] of 1, an MIC [16] of 6.25 µM (≈ 5.44 µg/mL) and an MIC [17] greater than 100 µM. It also gave an MIC [18] of 100 µM (≈ 87.1 µg/mL).

`CC(C)C[C@@H]1NC(=O)CN(Cc2ccc(-c3ccccc3)cc2)NC(=O)[C@H](CC(C)C)NC(=O)CN(Cc2ccc(-c3ccccc3)cc2)NC(=O)[C@H](CCCCN)NC(=O)CN(CCCCN)NC1=O` gave an MIC [1] of 1.56 µM (≈ 1.52 µg/mL), an HC50 at 1 h [3] of 15 µM and a Selectivity ratio [22] of 0.12. It also gave an MIC [4] of 12.5 µM (≈ 12.2 µg/mL), an MIC [5] of 1.56 µM (≈ 1.52 µg/mL) and a hemolysis at 1 h, 100 µM [6] of 90%. It also gave an MIC [7] of 25 µM (≈ 24.4 µg/mL), an MIC [8] of 12.5 µM (≈ 12.2 µg/mL) and an MIC [9] of 25 µM (≈ 24.4 µg/mL). It also gave a Selectivity ratio [10] of 9.6, an MIC [11] of 6.25 µM (≈ 6.09 µg/mL) and a Selectivity ratio [12] of 1. For the same compound, the MIC [13] was 1.56 µM (≈ 1.52 µg/mL), the MIC [14] was 0.78 µM (≈ 0.76 µg/mL) and the MIC [15] was 100 µM (≈ 97.4 µg/mL). It also gave a Selectivity ratio [21] of 1.2, an MIC [16] of 0.78 µM (≈ 0.76 µg/mL) and an MIC [17] greater than 100 µM. For the same compound, the MIC [18] was 3.12 µM (≈ 3.04 µg/mL).

With `CC(C)C[C@@H]1NC(=O)CN(Cc2ccc(-c3ccccc3)cc2)NC(=O)[C@H](CCCCN)NC(=O)CN(CCCCN)NC(=O)CN(Cc2ccc(-c3ccccc3)cc2)NC1=O` the MIC [1] was 12.5 µM (≈ 10.8 µg/mL), the HC50 at 1 h [3] was greater than 100 µM and the MHC [19] was 25 µM. It also gave a Selectivity ratio [22] of 0.5, an MIC [4] of 50 µM (≈ 43.1 µg/mL) and an MIC [5] of 6.25 µM (≈ 5.38 µg/mL). For the same compound, the hemolysis at 1 h, 100 µM [6] was 30%, the MIC [7] was 50 µM (≈ 43.1 µg/mL) and the MIC [8] was 50 µM (≈ 43.1 µg/mL). For the same compound, the MIC [9] was 25 µM (≈ 21.5 µg/mL), the Selectivity ratio [10] was 4 and the MIC [11] was 50 µM (≈ 43.1 µg/mL). The Selectivity ratio [12] was 1, the MIC [13] was 25 µM (≈ 21.5 µg/mL) and the MIC [14] was 3.12 µM (≈ 2.69 µg/mL). For the same compound, the MIC [15] was 50 µM (≈ 43.1 µg/mL), the Selectivity ratio [21] was 2 and the MIC [16] was 3.12 µM (≈ 2.69 µg/mL). For the same compound, the MIC [17] was greater than 100 µM and the MIC [18] was 50 µM (≈ 43.1 µg/mL).

With `CC[C@H](C)[C@H](NC(=O)CN)C(=O)NCC(=O)N[C@@H](C)C(=O)N[C@H](C(=O)N[C@@H](CC(C)C)C(=O)N[C@@H](CCCCN)C(=O)N[C@H](C(=O)N[C@@H](CC(C)C)C(=O)N[C@H](C(=O)N[C@H](C(=O)NCC(=O)N[C@@H](CC(C)C)C(=O)N1CCC[C@H]1C(=O)N[C@@H](C)C(=O)N[C@@H](CC(C)C)C(=O)N[C@H](C(=O)N[C@@H](CO)C(=O)N[C@@H](Cc1c[nH]c2ccccc12)C(=O)N[C@H](C(=O)N[C@@H](CCCCN)C(=O)N[C@@H](CCCNC(=N)N)C(=O)N[C@@H](CCCCN)C(=O)N[C@@H](CCCNC(=N)N)C(=O)N[C@@H](CCC(N)=O)C(=O)N[C@@H](CCC(N)=O)C(N)=O)[C@@H](C)CC)[C@@H](C)CC)[C@@H](C)O)[C@@H](C)O)C(C)C)C(C)C` [MELITTIN] the half-life [2] was 0.06 h, the MIC [5] was 3.12 µM (≈ 8.88 µg/mL) and the MIC [7] was 25 µM (≈ 71.2 µg/mL). For the same compound, the MIC [9] was 12.5 µM (≈ 35.6 µg/mL), the MIC [11] was 12.5 µM (≈ 35.6 µg/mL) and the MIC [14] was 6.25 µM (≈ 17.8 µg/mL). The MIC [15] was 25 µM (≈ 71.2 µg/mL), the MIC [16] was 1.56 µM (≈ 4.44 µg/mL) and the MIC [17] was greater than 100 µM. The MIC [18] was 6.25 µM (≈ 17.8 µg/mL).
